Reference: US20150322094A1, “USE OF SUBSTITUTED 2,3-DIHYDRO-1-BENZOFURAN-4-CARBOXYLIC ACIDS OR SALTS THEREOF AS ACTIVE SUBSTANCES AGAINST ABIOTIC PLANT STRESS” (Bayer CropScience AG, priority 2012, published 2015)

Experiments:
Assay type in all cases: in vivo
[1] = test system: BRSNS (Brassica napus); test: Drought stress, spray application, greenhouse pot test; conditions: evaluated after recovery phase
Protocol: (§1) Seeds of monocotyledonous and dicotyledonous crop plants were laid out in sandy loam in wood-fiber pots, covered with soil or sand and cultivated in a greenhouse under good growth conditions. The test plants were treated at the early leaf stage (BBCH10-BBCH13). To assure uniform water supply before commencement of stress, the potted plants were supplied with water by dam irrigation prior to substance application. The inventive compounds, formulated in the form of wettable powders (WP), were sprayed onto the green parts of the plants as an aqueous suspension at an equivalent water application rate of 600 l/ha with addition of 0.2% wetting agent (e.g. agrotin). Substance application was followed immediately by stress treatment of the plants. For this purpose, the pots were transferred into plastic inserts in order to prevent them from subsequently drying out too quickly.
(§2) Drought stress was induced by gradual drying out under the following conditions:
(§3) “Day”: 14 hours with illumination at 26° C.
(§4) “Night”: 10 hours without illumination at 18° C.
(§5) The duration of the respective stress phases was guided mainly by the state of the untreated, stressed control plants and thus varied from crop to crop. It was ended (by re-irrigating and transfer to a greenhouse with good growth conditions) as soon as irreversible damage was observed on the untreated, stressed control plants. In the case of dicotyledonous crops, for example oilseed rape and soya, the duration of the drought stress phase varied between 3 and 6 days, in the case of monocotyledonous crops, for example wheat, barley or corn, between 6 and 11 days.
(§6) The end of the stress phase was followed by an approx. 5-7-day recovery phase, during which the plants were once again kept under good growth conditions in a greenhouse.
(§7) In order to rule out any influence of the effects observed by any fungicidal or insecticidal action of the test compounds, it was additionally ensured that the tests proceeded without fungal infection or insect infestation.
(§8) After the recovery phase had ended, the intensities of damage were analysed in visual comparison to untreated, unstressed controls for the same age. The intensity of damage was first recorded as a percentage (100%=plants have died, 0%=like control plants). These values were then used to calculate the efficacy of the test compounds (=percentage reduction in the intensity of damage as a result of substance application) by the following formula: […]
(§9) DVus: damage value of the untreated, stressed control
(§10) DVts: damage value of the plants treated with test compound
(§11) In each trial, 3 pots per crop and dosage were treated and evaluated; the resulting efficacies are thus averages. The values in tables A-1, A-2 and A-3 below are again averages from one to three independent trials.

[2] = test system: ZEAMX (Zea mays); test: as above; conditions: average of one to three independent trials
Protocol: as §1, §2, §3, §4, §5, §6, §7, §8, §9, §10, §11

[3] = test system: ZEAMX (Zea mays); test: Cold stress, spray application, climate-controlled chamber test; conditions: averages from one to three independent trials
Text: (§12) Seeds of monocotyledonous and dicotyledonous crop plants were laid out in sandy loam in plastic pots, covered with soil or sand and cultivated in a greenhouse under good growth conditions until the early leaf stage (BBCH12). The trial plants were then likewise treated at the early leaf stage. To assure uniform water supply before commencement of stress, the potted plants were supplied with water by dam irrigation prior to substance application. The inventive compounds, formulated in the form of wettable powders (WP), were sprayed onto the green parts of the plants as an aqueous suspension at an equivalent water application rate of 300 I/ha with addition of 0.2% wetting agent (e.g. agrotin). Substance application was followed immediately by stress treatment of the plants. For this purpose, the plants in question were transferred into a climate-controlled chamber and, after a wait period of 24 h, subjected to a cold stress profile with the following conditions: • 1) “Morning” warm-up phase from 2 to 16° C. for 5 hours • 2) “Day” at 16° C. for 6 hours • 3) “Evening” cool-down phase from 16 to 2° C. for 7 hours • 4) “Night” at 2° C. for 6 hours
(§13) Over the entire trial period, both the stressed trial plants and the control plants were supplied with the same amount of water which enabled good growth under control conditions. For this purpose, the unstressed control plants which served as a comparison were kept in a greenhouse under good growth conditions and observing the following conditions: • 1) “Day”: 14 hours with illumination at 22° C. • 2) “Night”: 10 hours without illumination at 12° C.
(§14) After a period of two weeks of the cold stress profile, the stress phase was ended, and there followed a recovery phase of about three weeks, during which the plants were once again kept in a greenhouse under good growth conditions. In order to rule out any influence of the effects observed by any fungicidal or insecticidal action of the test compounds, it was additionally ensured that the tests proceeded without fungal infection or insect infestation.
as §8, §9, §10
(§15) In each trial, 8 pots per crop and dosage were treated and evaluated; the resulting efficacies are therefore averages. The values in tables B-1 and B-2 below are again averages from one to three independent trials.

[4] = test system: TRZAS (Triticum aestivum); test: Drought stress, spray application, greenhouse pot test; conditions: average of one to three independent trials
Protocol: as §1, §2, §3, §4, §5, §6, §7, §8, §9, §10, §11

[5] = test system: TRZAS (Triticum aestivum); test: Cold stress, spray application, climate-controlled chamber test; conditions: averages from one to three independent trials
Text: as §12, §13, §14, §8, §9, §10, §15

Structure (SMILES) | EF (BRSNS): efficacy = percentage reduction in the intensity of damage ([1]; dosage 2.5 g/ha) | EF (ZEAMX): efficacy, percentage reduction in the intensity of damage ([2]; dosage 25 g/ha) | EF (TRZAS): efficacy, percentage reduction in the intensity of damage ([4]; dosage 25 g/ha) | further results
COC(=O)c1c(O)ccc2c1CC(c1ccc(OC)cc1)O2 (centres unmarked) [I.1-4, Methyl 2-(4-methoxyphenyl)-5-hydroxy-2,3-dihydro-1-benzofuran-4-carboxylate] |  |  |  | EF (BRSNS): efficacy = percentage reduction in the intensity of damage ([1]; dosage 100 g/ha): >5%; EF (ZEAMX): efficacy, percentage reduction in the intensity of damage ([2]; dosage 100 g/ha): >5%; EF (ZEAMX): efficacy, percentage reduction in the intensity of damage ([3]; dosage 25 g/ha): >5%
COC(=O)c1c(OC(C)=O)ccc2c1CC(c1ccc(OC)cc1)O2 (centres unmarked) [I.5-4] | >5% |  |  | 
COC(=O)c1c(OS(=O)(=O)C(F)(F)F)ccc2c1CC(c1ccc(OC)cc1)O2 (centres unmarked) [I.16-4] |  | >5% |  | 
COC(=O)c1c(OC(=O)C2CCC2)ccc2c1CC(c1ccc(OC)cc1)O2 (centres unmarked) [I.6-4, Methyl 5-[(cyclobutylcarbonyl)oxy]-2-(4-methoxyphenyl)-2,3-dihydro-1-benzofuran-4-carboxylate] |  |  | >5% | EF (BRSNS): efficacy = percentage reduction in the intensity of damage ([1]; dosage 25 g/ha): >5%
COC(=O)c1c(O)ccc2c1CC(c1ccc(OCc3ccccc3)c(OC)c1)O2 (centres unmarked) [I.1-35] |  | >5% | >5% | EF (BRSNS): efficacy = percentage reduction in the intensity of damage ([1]; dosage 25 g/ha): >5%; EF (TRZAS): efficacy, percentage reduction in the intensity of damage ([5]; dosage 25 g/ha): >5%; EF (ZEAMX): efficacy, percentage reduction in the intensity of damage ([3]; dosage 25 g/ha): >5%
CCOC(=O)c1c(O)ccc2c1CC(c1ccc(OC)cc1)O2 (centres unmarked) [I.4-4] | >5% | >5% | >5% | EF (TRZAS): efficacy, percentage reduction in the intensity of damage ([5]; dosage 25 g/ha): >5%; EF (ZEAMX): efficacy, percentage reduction in the intensity of damage ([3]; dosage 6.25 g/ha): >5%
COC(=O)c1c(O)ccc2c1CC(c1ccc(OC)c(OC)c1)O2 (centres unmarked) [I.1-12] |  |  | >5% | EF (BRSNS): efficacy = percentage reduction in the intensity of damage ([1]; dosage 25 g/ha): >5%
COC(=O)c1c(O)ccc2c1CC(c1cccc(OC)c1)O2 (centres unmarked) [I.1-3] |  |  |  | EF (TRZAS): efficacy, percentage reduction in the intensity of damage ([4]; dosage 250 g/ha): >5%
COc1ccc(C2Cc3c(ccc(O)c3C(=O)O)O2)cc1 (centres unmarked) [I.2-4] |  |  |  | EF (BRSNS): efficacy = percentage reduction in the intensity of damage ([1]; dosage 250 g/ha): >5%
CCOC(=O)c1c(O)ccc2c1C(C)C(c1ccc(OC)c(OC)c1)O2 (centres unmarked) [I.4-21] | >5% |  |  | 
COC(=O)c1c(O)ccc2c1CC(c1ccc(OC(C)(C)C)cc1)O2 (centres unmarked) [I.1-32] |  | >5% | >5% | EF (BRSNS): efficacy = percentage reduction in the intensity of damage ([1]; dosage 25 g/ha): >5%
COC(=O)c1c(O)ccc2c1CC(C)(c1ccc3ccccc3c1)O2 (centres unmarked) [I.1-49] | >5% |  |  | 
COC(=O)c1c(O)ccc2c1CC(C)(c1ccc(C)cc1)O2 (centres unmarked) [I.1-44] | >5% | >5% |  | 
COC(=O)c1c(O)ccc2c1CC(c1ccc3ccccc3c1)O2 (centres unmarked) [I.1-48] | >5% |  |  | EF (ZEAMX): efficacy, percentage reduction in the intensity of damage ([2]; dosage 250 g/ha): >5%
COC(=O)c1c(O)ccc2c1CC(c1ccc(Oc3ccccc3)cc1)O2 (centres unmarked) [I.1-41] | >5% | >5% |  | EF (TRZAS): efficacy, percentage reduction in the intensity of damage ([5]; dosage 6.25 g/ha): >5%; EF (ZEAMX): efficacy, percentage reduction in the intensity of damage ([3]; dosage 6.25 g/ha): >5%
COC(=O)c1c(O)ccc2c1CC(C)(c1ccccc1)O2 (centres unmarked) [I.1-16] | >5% |  |  | 
COC(=O)c1c(O)ccc2c1C(C)C(c1ccc(OC)cc1)O2 (centres unmarked) [I.1-20] | >5% |  |  | 
COC(=O)c1c(O)ccc2c1CC(c1ccc(OC(C)=O)cc1)O2 (centres unmarked) [I.1-40] |  | >5% | >5% | EF (TRZAS): efficacy, percentage reduction in the intensity of damage ([5]; dosage 25 g/ha): >5%; EF (ZEAMX): efficacy, percentage reduction in the intensity of damage ([3]; dosage 25 g/ha): >5%
COC(=O)c1c(O)ccc2c1C(C)C(c1ccc(OC)c(OC)c1)O2 (centres unmarked) [I.1-21, Methyl 2-(3,4-dimethoxyphenyl)-5-hydroxy-3-methyl-2,3-dihydro-1-benzofuran-4-carboxylate] |  |  |  | EF (BRSNS): efficacy = percentage reduction in the intensity of damage ([1]; dosage 25 g/ha): >5%
